According to US9949473B2, “Coagulation controlling agents and devices comprising the same” (Becton, Dickinson and Company, priority 2011, dated 2018):
Ends that are not written are not given here.

How the values were obtained:
thrombin [1] = molecular target: T1, thrombin (Homo sapiens, UniProt P00734); experiment: Accelerated stability of sprayed thrombin with para-aminobenzamidine (thrombin activity on Stago Compact); format: biochemical; settings: para-aminobenzamidine about 3 mM in about 5 mM citrate or isocitrate pH about 6.1; sealed tubes at about 43° C., about 75% relative humidity; compared to citrates alone; FIG. 6, FIG. 7
T1 construct: In preferred embodiments, thrombin is alpha-thrombin
Protocol: The coagulation controlling agent para-aminobenzamidine was evaluated to determine if it improved the stability of sprayed thrombin under accelerated stability conditions. Without wishing to be bound by any particular theory, it is believed that para-aminobenzamidine stabilizes the spray-dried thrombin under conditions of extremely high humidity, where thrombin autolytic degradation can be rapid, even at room temperature.
Thrombin was prepared in about 5 mM citrate or isocitrate at a pH of about 6.1. Para-aminobenzamidine was added at a concentration of about 3 mM. About 16 μL of this solution was sprayed into 13×100 mm PET tubes. The tubes were dried by forced hot air, and evacuated. Sealed tubes were then placed in a controlled environmental chamber previously equilibrated to about 43° C. and about 75% relative humidity. At various time intervals, the tubes were removed and evaluated for thrombin activity on the Stago Compact coagulation analyzer. The error bars indicate the 95% confidence interval for the thrombin activity with 5 replicates.

[2] = test system: freshly drawn human blood; experiment: Visual scoring of fibrin mass in serum from blood clotted in thrombin/protamine tubes; settings: protamine about 0.5 mg/mL; FIG. 2
Protocol: Protamine sulfate was first resuspended in about 0.5 M hydrochloric acid at a concentration of about 250 mg/mL. This solution was then titrated to a pH of about 6 with 5 N sodium hydroxide. This titration to about pH 6 was performed immediately since prolonged exposure of protamine to low pH, it was believed, would result in hydrolysis and loss of activity. It is also believed that more dilute solutions of hydrochloric acid could be used for preparing the protamine solution.
The protamine solution was then mixed in a ratio of about 1:1 with a solution of about 1250 U/mL of thrombin in about 40 mM sodium citrate at about pH 6.0, containing about 20 mg/mL of a siloxane alkoxylate surfactant, and 2 mg/mL polyvinylpyrrolidone (PVP).
The resulting reagent was filtered and sprayed in 20 μL shots into 13×100 mm polyethyleneterephthalate (PET) tubes. The tubes were then dried by forced hot air, and evacuated and stoppered.
Tubes were filled with freshly drawn human blood and allowed to clot for between about 1 to about 3.5 minutes (randomized) and then centrifuged. The resulting serum was scored by visual assessment for the presence of a “fibrin mass” in the serum compartment on a scale of 0 to 3, with 3 being the most severe.

[3] = test system: reconstituted commercial lyophilized human plasma; experiment: Clotting time of plasma with thrombin/protamine solutions on Stago Compact coagulation analyzer; format: biochemical; settings: thrombin and protamine in about 20 mM citrate pH about 6, mixed about 1:1 with plasma; FIG. 3
Protocol: Solutions of thrombin and protamine in about 20 mM of citrate at a pH of about 6 were mixed in a ratio of about 1:1 with reconstituted commercial lyophilized human plasma and tested on a Stago Compact coagulation analyzer. The resulting clotting times were measured as a function of thrombin and protamine concentration for a given thrombin concentration. The concentrations listed on the graph of FIG. 3 represent the thrombin/protamine solutions before being mixed with the plasma.

thrombin [4] = molecular target: T1, thrombin; experiment: Accelerated stability of sprayed thrombin with protamine (thrombin activity on Stago Compact); format: biochemical; settings: about 45% relative humidity
Protocol: A mixture of thrombin (about 1250 U/mL), protamine (about 125 mg/mL or about 62.5 mg/mL), and a siloxane alkoxylate surfactant was prepared in about 20 mM citrate at a pH of about 6.0. About 20 μL of this mixture was sprayed into 13×100 mm PET tubes. The tubes were dried by forced hot air, evacuated, and stored in the refrigerator. At the initiation of the study, the tubes were uncapped and placed in a controlled environmental chamber previously equilibrated to about 50° C. and about 45% relative humidity. At various time intervals, tubes were removed and evaluated for thrombin activity on the Stago Compact coagulation analyzer. The error bars indicate the 95% confidence interval for the thrombin activity with 5 replicates.
When the thrombin activity of subsequent time points were normalized on the initial value, the resulting curves could be used to compare the relative stability of each formulation (see FIG. 5).

thrombin stability over time (thrombin [1]) | relative stability (thrombin activity normalized on the initial value) (thrombin [4]; about 50° C., compared with thrombin formulations without protamine, FIG. 5) | Molecule | performance of the tube (fibrin mass formation) [2] | clotting time as a function of protamine concentration [3] | thrombin activity over time (thrombin [4]; thrombin about 1250 U/mL, protamine about 125 or about 62.5 mg/mL, sprayed and dried in PET tubes, uncapped at about 50° C., FIG. 4)
preserves thrombin stability over time | – | N=C(N)c1ccc(N)cc1 [para-aminobenzamidine] | – | – | –
– | more stable | Protamine sulfate (PRRRRSSSRPVRRRRRPRVSRRRRRRGGRRRR; also: sulfate salt) [coagulation controlling agent; ID; NO; 1 in some embodiments] | improved the performance of the tube dramatically | decreasing clotting time with increasing protamine concentration | better with the protamine than without it
